Measurements published in US20090023801A1, “INHIBITORS OF BETA AMYLOID PRODUCTION” (Wyeth, priority 2007, published 2009).
Like-named read-outs stand apart in the source and are kept apart here.

Legend:
Notch = experiment: Stable transfection Notch reporter assay (HES1-SEAP, P8H6 CHO-K1 cells); assay type: cell-based; conditions: CHO-K1
From the text: A concern with compounds that lower beta amyloid synthesis by targeting the γ-secretase enzyme is that this enzyme also is involved in the cleavage of other substrates besides APP especially the Notch substrate. […] Thus, a selectivity of APP cleavage over Notch cleavage is desired in order to avoid G.I. side effects. The activity of compounds in cleaving Notch can be measured in a whole cell functional Notch assay. This is an assay to determine the effects of compounds on the S3 (γ-secretase like) processing of Notch. […] SEAP transactivation is then detected by luminescent assay. The assay consists of the following protocol:
• (i) Materials: The P8H6 inducible stable cell line was derived from T-REX™ CHO-K1, stably expressing Tet repressor, Notch (pZX1) and HES1-SEAP (pZX2) reporter constructs. A Wallac 1450 Victor™ Luminescence Counter was used to measure luminescent signal. All other materials and reagents were of highest quality available and were all from commercial sources.
(ii) Construct Description: • pZX1: Mouse Notch1 with deleted extracellular domain cloned at Hind III/Xho I sites of pcDNA5/TO vector: Ampicillin Resistance for bacteria, hygromycin resistance for cells. • pZX2: Mouse HES1 promoter together with reporter gene SEAP cloned at Not I/Apa I sites of pcDNA3.1 with deletion of CMV promoter.
(iii) Procedure: • 1. P8H6 cells were grown in Ham's F12 complete growth media containing 10% FBS (reduced tetracycline), 2 mM of L-glutamine, 1 mg/mL of hygromycin, 1 mg/mL of the GENETICIN® antibiotic, 10 μg/mL of Blasticidin and 1% Penicillin-Streptomycin were supplemented with doxycline with final induction concentration of 0.2 μg/mL. The cells were seeded in 96-well tissue culture plate at 8000/well. • 2. Test compounds in 0.2% DMSO/25 mM HEPES buffer were diluted at final working concentration of 20 μM, 6.7 μM, 2.2 μM, 741 nM, 247 nM, 82 nM, 27 nM, 9 nM and 3 nM. Diluted compounds then were added to P8H6 cells in 96-well tissue culture plates. For vehicle samples, the same volume of 0.2% DMSO/25 mM HEPES buffer was added. • 3. Cells were incubated at 37° C., 5% CO2 for 48 hours. • 4. SEAP levels in the conditioned media were assessed using the Clontech GREATESCAPE™ SEAP Chemiluminescence detection kit according to the manufacturer's instruction. Briefly, 15 μL of conditioned media were mixed with 45 μL of the dilution buffer and incubated at 65° C. for 45 minutes. After cooling, assay buffer was added and the sample was incubated with the CSPD® substrate. • 5. Luminescence was measured in a Wallac 1450 VICTOR™ luminescence counter.
EC50 was the compound concentration that was estimated to provide a 50% reduction of maximum response in Notch induced SEAP levels. An EC50 from a given assay may only be used for averaging if it has met the following criteria: • 1. There is a lower dose in the assay which gives a % Notch Activity>60% (bracketing lower dose). • 2. There is a higher dose in the assay which gives a % Notch Activity<30% (bracketing higher dose), and the maximum inhibition is reached (e.g., a given compound might achieve 80% inhibition (% Notch activity is about 20%) over several doses, and therefore 20% would be considered the maximum inhibition.
Data were analyzed in Microsoft EXCEL® format. EC50 was calculated by LSW using sigmoidal inhibition from B0 to nsb model (model 59). Each assay plate contained a dose response curve for the reference compound 5-chloro-N-[(1S,2R)-2-ethyl-4,4,4-trifluoro-1-(hydroxymethyl)butyl]thiophene-2-sulfonamide. This compound is discussed in International Patent Publication No. WO 2004/092155. The following data is not shown in that publication.
(§1) The beta amyloid inhibitory activity of compounds of formula (I) was determined using the MSD ECL assay. Inhibition of Notch processing was measured using the stable transfection reporter assay See, Table 1 below.

Aβ40 = experiment: Aβ-lowering MSD electrochemiluminescent assay of conditioned media from CHO cells expressing human APP (Aβ40); assay type: cell-based
Protocol: (§2) The activity of compounds in lowering the generation of Aβ40 and Aβ42, the most abundant forms of beta amyloid, from APP (amyloid precursor protein) was measured in an electrochemiluminescent (ECL) assay of conditioned media from chinese hamster ovary (CHO) cells stably expressing the human amyloid precursor protein (APP) reporter construct, hAPP-REPNL751 (Sughir, R. et al.; J. Biolog. Chem (1992) 267: 25602-25608). Aβ peptides were secreted at high levels into cell culture media by cells carrying the human APP transgene; compounds were tested for their capacity to modulate this production. The Aβ peptide in the conditioned medium was quantitated by a sandwich immunoassay with the MSD ECL detection system. Cell metabolism was measured using a 3-(4,5-dimethylthiazol-2-yl)-5-(3-carboxymethoxypheny)-2-(4-sulfophenyl)-2H-tetrazolium, inner salt (MTS) salt kit (which measures the mitochondrial activity of cells by the bioreduction of Owen's reagent). This assay consists of the following protocol:
(§3) 1. hAPP-REPNL751CHO cells were seeded into 96 well plates and incubated until about 60-70% confluence.
(§4) 2. Medium was removed, cells were washed, and fresh serum-free medium (Ultraculture) was put on cells.
(§5) 3. Compounds were diluted and then added to the cell medium.
(§6) 4. Cells were incubated, with compounds, for indicated times.
(§7) 5. Streptavidin coated Meso Scale Discover (MSD) plates (MSD standard MULTI-ARRAY® 96 plate, cat.# P11SA-1) were washed […] with TTBS (Tris-buffered saline, the TWEEN® 20 reagent).
(§8) 6. 20 μL conditioned medium were removed from the cells and added to the TTBS prewashed MSD plates.
(§9) 7. Standard curve dilutions of synthetic Aβ40 and Aβ42 were prepared and added to the MSD plates.
(§10) 8. A reagent mix was prepared in 1% MSD Blocker A (appropriate concentration of biotinylated 6E10 antibody, detection antibodies to Aβ40, Aβ42, and MSD ruthinylated tag antibody).
(§11) 9. 20 μL reagent mix was distributed to sample plate.
(§12) 10. Plates were incubated with shaking overnight at 4° C.
(§13) 11. Plates were washed 3× with TTBS.
(§14) 12. 150 μL read buffer was added per well (MSD® Read Buffer T, cat#R92TC-2, made 1× with distilled water).
(§15) 13. Plates were read in a MSD® plate reader within 2 hours.
(§16) Assays were accepted or rejected based upon specific performance criteria, including regression coefficient of standard curve, adequate signal to noise ratio, sample signals lying within the range of the standard curve, etc.: the specific parameters were established for each tissue type prior to performing an assay, and were included in the full analytical procedure.
(§17) Plate data from both assays (MTS and MSD® ELISA) were transferred into a Microsoft EXCEL® spreadsheet to determine the toxicity, and inhibition caused by the compounds. Standard curves of Aβ were generated using LSW™ toolbar Hill slope model 42, with 1/y weighting (general sigmoidal curve with Hill slope, a to d; y=(a−d)/(1+(x/c)̂b)+d). Inhibition data were expressed as a percent of the average of the Aβ values in the vehicle treated wells (all values are background subtracted), using LSW™ toolbar Hill Slope model 68 (ligand-receptor binding/sigmoidal, with Hill slope and Bmax to 0; y=Bmax*(1−(x̂n/(K̂n+x̂n))), after raw values were translated/transformed into absolute Aβ values utilizing the standard curve generated as described above (e.g. back calculate absolute Aβ values from the raw values utilizing standard curve). Onboard controls to verify assay performance were checked to assure that amyloid is within linear detection range of the assay, that cells were expressing correctly, and that the MSD itself was performing according to quality control (QC) standards.
(§18) % Inhibition>50% may be considered a positive response or an interesting result in this assay; EC50 determination were determined.
as §1

Aβ42 = experiment: Aβ-lowering MSD electrochemiluminescent assay of conditioned media from CHO cells expressing human APP (Aβ42); assay type: cell-based
Protocol: as §2, §3, §4, §5, §6, §7, §8, §9, §10, §11, §12, §13, §14, §15, §16, §17, §18, §1

[1] = stable transfection Notch reporter assay, 48 hours, read-out: Notch EC50 for inhibition of Notch
[2] = MSD electrochemiluminescent assay, hAPP-REPNL751 CHO cells, read-out: Aβ40 EC50 for inhibition of Aβ40
[3] = MSD electrochemiluminescent assay, hAPP-REPNL751 CHO cells, read-out: Aβ42 EC50 for inhibition of Aβ42

EC50 (Notch; Notch assay reference compounds, read-out: EC50 (Notch assay)) [nM] | EC50 (Aβ40; CHO, beta amyloid assay reference compounds, read-out: EC50 Aβ40) [nM] | EC50 (Aβ42; CHO, beta amyloid assay reference compounds, read-out: EC50 Aβ42) [nM] | EC50 (Notch; [1]) [nM] | EC50 (Aβ40; [2]) [nM] | EC50 (Aβ42; [3]) [nM] | melting point [°C] | SMILES
68 | 109 | 79 | – | – | – | – | CC(C)[C@H](O)C(=O)N[C@@H](C)C(=O)N[C@@H]1C(=O)N(C)CCc2ccccc21 [(2S)-2-hydroxy-3-methyl-N-((1S)-1-methyl-2-{[(1S)-3-methyl-2-oxo-2,3,4,5-tetrahydro-1H-3-benzazepin-1-yl]amino}-2-oxoethyl)butanamide, reference compound]
– | – | – | > 20000 | 710 | 760 | – | O=S(=O)(NC(CO)C(c1ccccc1)C(F)(F)F)c1ccc(Cl)s1 (stereo not shown) [Example 1, 5-Chloro-N-[3,3,3-trifluoro-1-(hydroxymethyl)-2-phenylpropyl]thiophene-2-sulfonamide]
– | – | – | 3750 | 238 | 197 | – | O=S(=O)(N[C@H](CO)[C@@H](c1ccccc1)C(F)(F)F)c1ccc(Cl)s1 [Example 4, 5-Chloro-N-[(1S,2R)-3,3,3-trifluoro-1-(hydroxymethyl)-2-phenylpropyl]thiophene-2-sulfonamide]
– | – | – | > 20000 | 1330 | 1900 | 129 to 131 | O=S(=O)(N[C@H](CO)[C@@H](c1ccccc1)C(F)(F)F)c1ccc(Cl)cc1 [Example 6, 4-Chloro-N-[(1S,2R)-3,3,3-trifluoro-1-(hydroxymethyl)-2-phenylpropyl]benzenesulfonamide]
